Assay results: patent US20040219508A1, “Screening, quantitation and identification of active ingredients in natural products” (Sloan-Kettering Institute for Cancer Research, priority 2002, published 2004)

Assays:
[1] = cited from earlier work
[2] = human, in vivo
Protocol: Pharmacokinetic studies (PK). Bloods for pharmacokinetic studies (PK) will be performed on days 1, 2, 8, 15 and 29 of treatment. Repeated bloods for PK will be drawn on day #1 only, before the daily dose (time=0), 1 hour after, and 2,4, 6, 8 and 24 hours after the first dose of huanglian. On all other days, a single PK blood sample will be drawn, to measure steady state levels of the drug. For these studies 10 ml of heparinized blood (green stopper vacutainer tube) will be collected. Plasma samples (PK) will be sent for pharmacokinetic measurements of huanglian peaks.
Pharmacokinetic (PK) and surrogate marker studies: Since berberine represents approximately 50% of the herb, PK measurements were being conducted of berberine by HPLC. However, only very low levels of berberine (<50 ng/ml) have been detected in the plasma of any patient on the study. Also being tested is plasma collected from patients on day #15 of therapy to determine if the patient's own plasma will inhibit cancer cell growth of the gastric cancer cell line MKN-74 ex vivo, as determined by SRB assays. For these studies, the patient's plasma is concentrated and the MKN-74 cells are exposed to the patient's own plasma for either 2 (II) or 4 (IV) days before the tumor cells are assayed for growth inhibition. As shown for the patient treated in cohort 3 (see graph below), the patient's own pretreatment plasma (day 0) was capable of inhibiting MKN-74 cell growth, even though the patient had been off all chemotherapy for at least 4 weeks. Three separate samples were then drawn on day 15 of treatment at 8:30 AM, 9:30 AM, and 12:30 PM. […] The last lanes show the positive control of media “spiked” with huanglian (HL) at a concentration of 20 μg/ml and exposed to MKN-74 cells for both 2 and 4 days. This degree of growth suppression confirms the activity of the herb from the capsules.

[3] = Metabolism by human liver S9 microsomes, HPLC/UV; format: in vitro ADME; conditions: extract 3 μ/ml, S9 1 mg/ml with NADPH
Protocol: Since oral drugs are metabolised by a “first-pass” through the liver, we also elected to determine whether huanglian would be metabolised in vitro by human liver S9 microsomes (Gentest, MA). This assay creates metabolites of a drug that are equivalent to those formed on a “first-pass” through the liver. For these studies, the huanglian extract, at a final concentration of 3 μ/ml, was exposed to human liver S9 microsomes at 1 mg/ml with NADPH. The microsomal extracts obtained in this assay were then analyzed by HPLC and UV spectroscopy.

MKN-74 = experiment: MTT growth assay; format: cell-based, human; conditions: 10 μg/ml berberine
Protocol: The cells were treated on day 0 with huanglian and then cell viability in the continued presence or absence (control) of drug was determined for the subsequent 5 days (days 1 to 5) by the MTT (3-(4,5-dimethythiazol-2-yl)-2-5-diphenyltetratrazolium bromide) assay. In this colorometric assay the absorbance of converted dye is measured at a wavelength (OD) of 550 nm and the increased absorbance is directly proportional to cell viability.
Since berberine constitutes the major fraction of huanglian (25%), a 10 μg/ml solution of berberine was tested to determine the degree to which it inhibited proliferation of the MKN-74 cells.

[4] = dogs; cited from earlier work
[5] = cited from earlier work; remark: listed apart in the source
HepG2 hepatoma cells = conditions: continuous exposure, 1 to 50 μM; cited from earlier work
MKN-74 cells = experiment: Flow cytometry with MPM-2 labeling after nocodazole synchronisation; format: cell-based, human
Source text: Activation of cyclin B1 associated cdc2 kinase by mitotic inhibitors including paclitaxel induces an increased accumulation of cells into the M phase of the cell cycle (12). Thus, a decrease in cyclin B1 associated kinase activity should prevent cells from entering M and results in an accumulation of cells in G2. It should also force cells in M to exit M and continue to cell cycle. Experiments were designed to test this in the MKN-74 cells by flow cytometry and labeling of cells with the MPM-2 antibody which identifies cells in mitosis. This is difficult to assess in asynchronous cells. So as to better document accumulation of cell in G2, experiments were designed to first synchronise the cells with nocodazole in the M phase (e.g. mitotic block).

| Plasma B [2] | berberine in plasma by HPLC [2] | berberine level in plasma [2] | change of HPLC peaks after liver microsome treatment [3] | Compound | facial flushing ([1]; 12 patients) | transient nausea ([1]; 12 patients) | QTc interval ([1]; after berberine, returned to baseline after 24 hours) | hemodynamic effects ([1]; i.v. 0.2 mg/kg/min over 30 minutes) | ventricular tachycardia with torsades de pointes morphology, patients ([1]; within 1-20 hours of the infusion) | inhibition of cell proliferation (MKN-74) | cardiovascular effects [4] | clinical effect at higher plasma concentration ([5]; berberine plasma concentrations >0.11 mg/L) | side effects ([5]; by mouth, 1.2 gm/d for two weeks, 56 patients) | tumor cell growth (HepG2 hepatoma cells) | cells remaining in M (MKN-74 cells; nocodazole for 12 hours (NOC12)) | cells remaining in M (MKN-74 cells; nocodazole, then drug free medium 24 hours (NOC12→(−)24)) |
| --- | --- | --- | --- | --- | --- | --- | --- | --- | --- | --- | --- | --- | --- | --- | --- | --- |
| 0 to 0.024 µg/mL | non-measurable by HPLC | < 50 ng/mL | decreased only slightly | COc1ccc2cc3[n+](cc2c1OC)CCc1cc2c(cc1-3)OCO2 [berberine] | 2 patients | 2 patients | consistently elevated in all 12 patients | decrease in pulmonary and systemic vascular resistance and an increase in cardiac index and ejection fraction | Four of 12 | not able to inhibit cell proliferation to the same degree as either the huanglian or its metabolites | positive inotropic effects and lower peripheral vascular resistance | more significant increase in LVEF and decrease in the frequency and complexity of ventricular premature beats | no side effects or arrythmogenesis | inhibits tumor cell growth in a dose-dependent manner | – | – |
| – | – | – | – | COC(=O)Nc1nc2ccc(C(=O)c3cccs3)cc2[nH]1 [nocodazole] | – | – | – | – | – | – | – | – | – | – | 41% | 16% |
